ChEMBL document CHEMBL6114961, “Novel isoxazole thiophene-containing compounds active against Mycobacterium tuberculosis” (Bioorg Med Chem Lett, 2025)
Values after ≈ are worked out from the molar mass of the structure shown.

Legend:
Type in all cases: functional
[1] = tested on: Mycobacterium tuberculosis; test: Antituberculosis activity against Mycobacterium tuberculosis sCHN240 mutant CR1 strain assessed as reduction in bacterial growth
[2] = tested on: Mycobacterium tuberculosis; test: Antituberculosis activity against Mycobacterium tuberculosis sCHN240 mutant CR2 strain assessed as reduction in bacterial growth
[3] = tested on: Mycobacterium tuberculosis; test: Antituberculosis activity against Mycobacterium tuberculosis sCHN240 mutant CR3 strain assessed as reduction in bacterial growth
[4] = tested on: Mycobacterium tuberculosis; test: Antituberculosis activity against Mycobacterium tuberculosis sCHN240 mutant CR5 strain assessed as reduction in bacterial growth
[5] = tested on: Mycobacterium tuberculosis; test: Antituberculosis activity against Mycobacterium tuberculosis sCHN240 mutant CR6 strain assessed as reduction in bacterial growth
[6] = tested on: Mycobacterium tuberculosis; test: Antituberculosis activity against Mycobacterium tuberculosis Rv1625c mutant assessed as reduction in bacterial growth measured after 7 days using 7H9 broth by Alamar blue staining based analysis; details: time 7 day

Row | Structure (SMILES) | MIC90 [1] [µM] | MIC90 [2] [µM] | MIC90 [3] [µM] | MIC90 [4] [µM] | MIC90 [5] [µM] | MIC90 [6] [µM]
1 | Cn1ncnc1CC(=O)N1CCC(c2nc(-c3ccc(Cl)c(Cl)c3)no2)CC1 | >20 | >20 | >20 | >20 | >20 | –
2 | O=S(=O)(Nc1cc(-c2ccsc2)no1)c1ccccc1F | – | – | – | – | – | 19.9 (≈ 6.45 µg/mL)
